According to patent US9540330B2, “Oligomer-containing hydantoin compounds” (Nektar Therapeutics, priority 2010, dated 2017):

Experiments:
[1] = molecular target: sodium channels in isolated cardiac cells (human atrial myocytes) (Homo sapiens, UniProt Q14524); test: Sodium current (INa) block in isolated human atrial myocytes, whole-cell patch clamp; assay type: cell-based; settings: pacing rates 0.1, 1 and 3 Hz, FIG. 2
Description: Phenyloin and compounds prepared in accordance with Example 1 were evaluated in vitro to determine their ability to block sodium channels in isolated cardiac cells (human atrial myocytes) using the whole-cell patch clamp method
Human myocytes were obtained from specimens of human right atrial appendages obtained during surgery from hearts of patients undergoing cardiopulmonary bypass surgery. The procedure produced rod-shaped, ion tolerant cells which were used within 24 hours after isolation. See Crumb et al. (1995) Am J Physiol 268:H1335-H1342. […]
After rupture of the cell membrane (entering whole-cell mode), current kinetics and amplitudes were allowed to stabilize as the cell was dialyzed with internal solution and paced at 3 Hz (3-5 minutes). Sodium current (INa) was measured using a voltage pulse to −20 mV (40 ms pulse duration) from a holding potential of −80 mV. Peak inward current was measured for INa. […]
Currents and voltages were recorded with patch-clamp amplifiers (Axopatch 1-B, Axon Instruments). […] Data was presented as % reduction of current amplitude, measured as current reduction after a steady-state effect had been reached in the presence of test article relative to current amplitude before introduction of test article (control). […]

[2] = molecular target: T1, cloned human hERG channel (Homo sapiens, UniProt Q12809); test: hERG current block in HEK cells, whole-cell patch clamp; assay type: cell-based; settings: HEK cells expressing cloned human hERG channel, 37±1° C., peak current at −40 mV; read-out: hERG (μM), IC50 for inhibition of hERG
T1 construct: expressed in transfected cells; host or cells: HEK cells
Description: Electrophysiological measurements of hERG current were made in vitro to assess the hERG block produced by the phenyloin conjugates. hERG currents were measured in HEK cells expressing the cloned human hERG channel using the whole-cell variant of the patch clamp method. Experiments were performed at 37±1° C. hERG current was elicited by a step pulse to +10 mV for 500 ms from a holding potential of −75 mV, followed by a pulse to −40 mV for 500 ms. Peak current was measured from the pulse to −40 mV. Six concentrations of each test compound were added to the cell in a cumulative manner starting with the lowest test concentration. Each cell served as its own control and data are presented as % reduction of current amplitude achieved in the presence of drug.

T1 sequence (Q12809 whole entry): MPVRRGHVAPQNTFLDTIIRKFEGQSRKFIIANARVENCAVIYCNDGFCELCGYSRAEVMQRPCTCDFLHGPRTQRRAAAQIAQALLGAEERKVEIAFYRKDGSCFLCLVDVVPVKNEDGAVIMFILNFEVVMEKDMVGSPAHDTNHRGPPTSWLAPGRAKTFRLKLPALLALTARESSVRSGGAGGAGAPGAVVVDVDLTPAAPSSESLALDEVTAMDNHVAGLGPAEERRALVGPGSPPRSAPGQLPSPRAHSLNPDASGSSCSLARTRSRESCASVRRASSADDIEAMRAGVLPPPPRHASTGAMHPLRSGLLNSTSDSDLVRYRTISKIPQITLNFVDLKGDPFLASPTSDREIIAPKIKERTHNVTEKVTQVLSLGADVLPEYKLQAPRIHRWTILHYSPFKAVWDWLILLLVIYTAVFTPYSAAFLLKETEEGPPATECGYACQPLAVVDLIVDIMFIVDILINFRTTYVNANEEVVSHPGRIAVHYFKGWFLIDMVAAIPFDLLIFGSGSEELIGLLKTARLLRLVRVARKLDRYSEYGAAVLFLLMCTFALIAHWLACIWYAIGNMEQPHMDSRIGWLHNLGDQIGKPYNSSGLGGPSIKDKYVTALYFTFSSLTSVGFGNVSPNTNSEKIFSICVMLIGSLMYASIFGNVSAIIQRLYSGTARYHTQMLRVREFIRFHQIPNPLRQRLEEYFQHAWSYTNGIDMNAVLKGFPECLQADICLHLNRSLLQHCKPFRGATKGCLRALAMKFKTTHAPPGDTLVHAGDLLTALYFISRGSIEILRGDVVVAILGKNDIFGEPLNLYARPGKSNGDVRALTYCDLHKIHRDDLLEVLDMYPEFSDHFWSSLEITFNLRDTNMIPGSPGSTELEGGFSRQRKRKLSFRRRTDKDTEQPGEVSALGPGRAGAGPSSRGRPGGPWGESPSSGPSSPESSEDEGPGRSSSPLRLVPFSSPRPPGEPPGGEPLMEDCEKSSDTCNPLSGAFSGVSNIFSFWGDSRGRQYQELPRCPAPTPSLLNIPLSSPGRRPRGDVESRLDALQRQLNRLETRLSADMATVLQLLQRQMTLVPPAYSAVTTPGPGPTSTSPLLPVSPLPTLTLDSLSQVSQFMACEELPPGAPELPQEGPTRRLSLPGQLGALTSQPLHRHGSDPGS
Chain of sodium channels in isolated cardiac cells (human atrial myocytes) (Q14524 whole entry): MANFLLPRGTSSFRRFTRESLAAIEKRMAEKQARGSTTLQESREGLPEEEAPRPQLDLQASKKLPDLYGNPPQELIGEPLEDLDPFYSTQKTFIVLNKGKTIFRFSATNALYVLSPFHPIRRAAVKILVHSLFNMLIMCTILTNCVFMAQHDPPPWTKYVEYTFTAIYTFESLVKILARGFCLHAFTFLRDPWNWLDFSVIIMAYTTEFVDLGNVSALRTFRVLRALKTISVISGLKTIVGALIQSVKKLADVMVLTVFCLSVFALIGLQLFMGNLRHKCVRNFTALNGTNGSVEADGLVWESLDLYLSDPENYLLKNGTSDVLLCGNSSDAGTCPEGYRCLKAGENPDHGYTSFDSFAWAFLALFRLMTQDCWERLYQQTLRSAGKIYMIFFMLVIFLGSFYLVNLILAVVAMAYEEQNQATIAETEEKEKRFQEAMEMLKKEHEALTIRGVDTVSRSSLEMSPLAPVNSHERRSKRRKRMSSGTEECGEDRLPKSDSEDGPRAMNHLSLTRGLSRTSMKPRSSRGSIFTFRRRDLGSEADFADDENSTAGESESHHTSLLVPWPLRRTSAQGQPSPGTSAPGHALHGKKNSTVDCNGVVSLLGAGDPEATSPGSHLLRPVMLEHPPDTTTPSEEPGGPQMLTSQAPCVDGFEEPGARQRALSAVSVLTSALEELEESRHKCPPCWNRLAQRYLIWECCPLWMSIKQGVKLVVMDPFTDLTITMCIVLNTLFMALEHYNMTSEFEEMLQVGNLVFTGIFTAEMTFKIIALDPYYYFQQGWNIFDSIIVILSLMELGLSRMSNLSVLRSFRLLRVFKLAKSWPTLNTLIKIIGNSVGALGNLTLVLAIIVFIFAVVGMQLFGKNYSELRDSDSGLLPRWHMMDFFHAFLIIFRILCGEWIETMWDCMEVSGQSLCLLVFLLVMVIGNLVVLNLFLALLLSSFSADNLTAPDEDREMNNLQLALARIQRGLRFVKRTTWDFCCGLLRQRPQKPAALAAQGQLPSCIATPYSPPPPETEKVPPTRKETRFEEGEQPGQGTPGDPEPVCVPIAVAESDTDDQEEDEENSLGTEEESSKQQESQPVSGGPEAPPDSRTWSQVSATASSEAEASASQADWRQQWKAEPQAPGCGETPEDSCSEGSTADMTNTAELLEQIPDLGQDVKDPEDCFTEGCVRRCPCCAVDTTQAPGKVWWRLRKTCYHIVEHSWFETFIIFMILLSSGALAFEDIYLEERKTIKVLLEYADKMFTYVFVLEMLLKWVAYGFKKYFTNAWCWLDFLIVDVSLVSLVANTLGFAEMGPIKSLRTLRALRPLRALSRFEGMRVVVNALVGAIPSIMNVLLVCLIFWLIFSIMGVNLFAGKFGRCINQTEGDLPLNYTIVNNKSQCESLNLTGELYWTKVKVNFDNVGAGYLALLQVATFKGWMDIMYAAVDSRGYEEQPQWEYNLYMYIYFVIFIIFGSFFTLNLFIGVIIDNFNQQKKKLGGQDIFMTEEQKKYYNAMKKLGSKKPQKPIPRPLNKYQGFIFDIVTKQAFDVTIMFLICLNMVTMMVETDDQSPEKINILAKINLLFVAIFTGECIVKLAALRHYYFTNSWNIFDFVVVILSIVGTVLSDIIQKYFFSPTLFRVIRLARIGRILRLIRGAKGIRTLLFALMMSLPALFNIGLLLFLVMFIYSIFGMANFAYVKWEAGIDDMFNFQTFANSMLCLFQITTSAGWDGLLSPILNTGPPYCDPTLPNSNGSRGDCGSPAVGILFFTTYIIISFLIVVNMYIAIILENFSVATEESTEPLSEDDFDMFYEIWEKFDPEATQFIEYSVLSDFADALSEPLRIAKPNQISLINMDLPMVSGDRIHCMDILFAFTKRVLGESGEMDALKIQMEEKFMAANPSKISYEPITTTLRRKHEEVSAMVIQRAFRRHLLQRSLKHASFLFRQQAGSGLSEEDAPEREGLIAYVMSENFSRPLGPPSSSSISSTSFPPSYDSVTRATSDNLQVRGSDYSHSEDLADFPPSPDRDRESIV

Structure (SMILES)	frequency-dependence of sodium channel block (in words) [1]	IC50 [2] [µM]
O=C1NC(=O)C(c2ccccc2)(c2ccccc2)N1 [Phenytoin, 5,5-diphenylhydantoin]	frequency-dependent block of sodium channels	–
COCCOCCOCCOCCN1C(=O)NC(=O)C1(c1ccccc1)c1ccccc1 [mPEG4-N-Phenytoin]	–	88.9
COCCOCCOCCOCCOCCN1C(=O)NC(=O)C1(c1ccccc1)c1ccccc1 [mPEG5-N-Phenytoin]	–	> 100
COCCOCCOCCOCCOCCOCCOCCN1C(=O)NC(=O)C1(c1ccccc1)c1ccccc1 [mPEG7-N-Phenytoin]	–	> 100
